Data from ChEMBL document CHEMBL1126374, “Synthesis of -(S)-acylamino-N-(hydroxydioxocyclobutenyl)--lactams as potential antibiotics” (Bioorg Med Chem Lett, 1992).
Activity calls are given as the source filed them. The rule behind the calls is not given here.

Columns and labels:
Escherichia coli = test: Tested for antibacterial activity against Escherichia coli; IA - No useful antibacterial activity; type: functional, organism-based
Staphylococcus aureus = test: Tested for antibacterial activity against Staphylococcus aureus; IA - No useful antibacterial activity; type: functional, organism-based
Streptococcus pneumoniae = test: Tested for antibacterial activity against Streptococcus pneumoniae; IA - No useful antibacterial activity; type: functional, organism-based
[1] = Half life in pH 7 buffer solution was determined; type: ADME

Compound	Activity (Escherichia coli)	Activity (Staphylococcus aureus)	Activity (Streptococcus pneumoniae)	half-life [1] [h]
CO/N=C(/C(=O)N[C@H]1CN(c2c(O)c(=O)c2=O)C1=O)c1csc(N)n1	inactive	inactive	inactive	
O=C(COc1ccccc1)N[C@H]1CN(c2c([O-])c(=O)c2=O)C1=O.[K+]	inactive	inactive	inactive	72
C[C@H]1[C@H](NC(=O)COc2ccccc2)C(=O)N1c1c([O-])c(=O)c1=O.[K+]	inactive	inactive	inactive	168
